In brackets after ≈: the same amount, converted by molar mass. Like-named read-outs stand apart in the source and are kept apart here. Each block holds one molecule with its values, some of them ahead of it.
Tests used:
Staphylococcus aureus [1] = settings: Staphylococcus aureus 342U-116
[2] = tested on: Enterococcus faccium (VRE); assay: microbe, parasite or virus in culture; settings: read-out: Minimum Inhibitory Concentrations
Staphylococcus aureus [3] = assay: microbe, parasite or virus in culture
skin of healthy subjects = assay: 21-day cumulative skin irritation study in healthy subjects; settings: occlusive patches
Experimental: Subjects include males and females, ranging in age from 18 to 70 years old. Subjects are of any skin and race type.
Patches are prepared approximately 5-60 minutes before application to the subject and are applied on the backs of subjects at designated sites. Patches are held in place with appropriate adhesion tapes for 48 hours. Gels are applied to the same site on a given subject according to the randomization code three times per week. Subjects are instructed to keep the patches dry and are asked to avoid exercise that results in excessive sweating. Additionally, subjects are instructed to not expose the applied sites to sunlight for the duration of the study.
Every application is observed 48 hours later for signs of irritation or inflammation by a clinician or investigator. The clinician or investigator evaluates sign of skin reaction on each site for approximately 5-15 minutes after the patch is removed. Skin irritancy is rated according to the following commonly used 6-point scale: • 0=No sign of irritation • 0.5=Barely perceptible erythema • 1=Slight erythema • 2=Noticeable erythema with slight infiltration • 3=Erythema with marked edema • 4=Erythema with edema and blistering
Other signs of skin reaction to the tested gels are noted as adverse events and are recorded. A total of nine readings are performed during the study. […]

Serratia marcescens = assay: microbe, parasite or virus in culture; assay type: cell-based; settings: Serratia marcescens 13880; read-out: Minimum Inhibitory Concentrations
Experimental: (§1) Acne vulgaris may involve a microbial consortium. Although P. acnes may be a prominent member of such a consortium, other uncharacterized bacteria may also participate. The microbial activity of XMP.629 as an acetate gel as described in Example 5 and other commonly used antibiotics was evaluated against a panel of human pathogens using standardized NCCLS protocols. […] Lesser potency was observed against the gram-negative organisms B. fragilis, B. cepacia, P. mirabilis and S. marcescens, which are often refractory to many antimicrobial compounds.

Bacteroides fragilis = assay: microbe, parasite or virus in culture; assay type: cell-based; settings: Bacteroides fragilis 25285; read-out: Minimum Inhibitory Concentrations
Experimental: as §1

Escherichia coli = assay: microbe, parasite or virus in culture; assay type: cell-based; settings: Escherichia coli, read-out: Minimum Inhibitory Concentrations
Experimental: as §1

Klebsiella pneumoniae = assay: microbe, parasite or virus in culture; assay type: cell-based; settings: Klebsiella pneumoniae, read-out: Minimum Inhibitory Concentrations
Experimental: as §1

Proteus mirabilis = assay: microbe, parasite or virus in culture; assay type: cell-based; settings: Proteus mirabilis 29852; read-out: Minimum Inhibitory Concentrations
Experimental: as §1

E. coli = E. coli 4104 LF
Pseudomonas aeruginosa = assay: microbe, parasite or virus in culture
Streptococcus sobrinus = assay: microbe, parasite or virus in culture; settings: read-out: Minimum Inhibitory Concentrations
Enterococcus hirae = assay: microbe, parasite or virus in culture; settings: read-out: Minimum Inhibitory Concentrations
Burkholderia cepacia = assay: microbe, parasite or virus in culture; assay type: cell-based; settings: Burkholderia cepacia 25416; read-out: Minimum Inhibitory Concentrations
Experimental: as §1

Prevotella intermedia = assay: microbe, parasite or virus in culture; assay type: cell-based; settings: Prevotella intermedia 25261; read-out: Minimum Inhibitory Concentrations
Experimental: as §1

Porphyromonas gingivalis = assay: microbe, parasite or virus in culture; assay type: cell-based; settings: Porphyromonas gingivalis 33277; read-out: Minimum Inhibitory Concentrations
Experimental: as §1

Salmonella ryphimurium = assay: microbe, parasite or virus in culture; assay type: cell-based; settings: Salmonella ryphimurium SL770; read-out: Minimum Inhibitory Concentrations
Experimental: as §1

[4] = tested on: Actinobacillus actinomycetemcomitans; assay: microbe, parasite or virus in culture; assay type: cell-based; settings: Aggregatibacter actinomycetemcomitans; Actinobacillus actinomycetemcomitans 43718; read-out: Minimum Inhibitory Concentrations
Experimental: as §1

Streptococcus pneumoniae = assay: microbe, parasite or virus in culture; settings: read-out: Minimum Inhibitory Concentrations
Streptococcus mutans = assay: MIC, panel of human pathogens, standardized NCCLS protocols; assay type: cell-based; settings: read-out: Minimum Inhibitory Concentrations
Macrococcus caseolyticus = assay: microbe, parasite or virus in culture; settings: Macrococcoides caseolyticum, read-out: Minimum Inhibitory Concentrations
patients = settings: clinical trials; cited from earlier work
S. aureus = assay: Comparison of XMP.629 with standard topical agents (MIC90/MBC); assay type: cell-based, Staphylococcus aureus; settings: Staphylococcus aureus
Experimental: (§2) Control tubes containing only water or formulation buffer were prepared for each isolate. Initial growth controls were determined by removing 10 μL from the water control tube and diluting it by 100 fold. From this dilution, 10 μL was used for inoculation and for spreading over the surface onto Laked Blood Agar (LBA) (Anaerobe Systems, Morgan Hill, Calif.) plates. The tubes and plates were incubated in an anaerobic atmosphere at 37° C. for 48 h. […] MBC50 and 90 values represent where 50 and 90%, respectively, of the tested strain's MBC values are equal to or less than the indicated concentration.

[5] = tested on: P. acnes strain (ATCC 6919); assay: microbe, parasite or virus in culture; settings: Cutibacterium acnes, ATCC6919, read-out: MIC for matched, untreated, control organisms
P. acnes [6] = assay: microbe, parasite or virus in culture; settings: Cutibacterium acnes
[7] = tested on: P. acnes strain (ATCC 6919); settings: P. acnes ATCC 6919 passaged in the drug, level of the resistant culture sought/obtained
Corynebacterium = assay: microbe, parasite or virus in culture; assay type: cell-based; settings: read-out: MIC90 of Standard Topical Agents
Experimental: as §2

P. acnes [8] = assay: microbe, parasite or virus in culture; settings: Cutibacterium acnes, read-out: MIC90 of Standard Topical Agents
Experimental: An in vitro assessment of antibiotic activity in XMP.629 and various known antibiotics against a representative panel of bacterial strains associated with acne was conducted. A broth dilution methodology was employed using guidelines established by National Committee for Clinical Laboratory Standards (NCCLS) for anaerobic organisms to establish an antibacterial profile for XMP.629. Assays to determine the minimal bactericidal concentrations (MBC) and minimal inhibitory concentration (MIC) were conducted for XMP.629 and other known antibiotics.
Inoculum from a representative panel of bacterial strains associated with acne, such as P. acnes, P. avidum, P. granulosum, and Staphylococcus epidermis was prepared by suspending approximately 5-10 isolated bacterial colonies in pre-reduced MicroScan® Inoculum Water (Dade Behring, Deerfield, Ill.), and growing the bacterial suspension to log phase (approximately 48 hrs). An inoculum of between 1-5×10^6/mL was achieved by adding 100 μL of the suspension to 25 mL Brain Heart Infusion Broth (BHI) (Anaerobe Systems, Morgan Hill, Calif.).
A stock solution of XMP.629 dissolved in water at a concentration of 4.0 mg/mL was prepared. Dilute solutions of XMP.629 at concentrations ranging from about 1.25 to about 160 μg/mL were made in either water or formulation buffer (130 mM sodium chloride, 0.2% P103 (poloxamer 333), and 0.10% EDTA, pH 7.3).
Control tubes containing only water or formulation buffer were prepared for each isolate. Initial growth controls were determined by removing 10 μL from the water control tube and diluting it by 100 fold. From this dilution, 10 μL was used for inoculation and for spreading over the surface onto Laked Blood Agar (LBA) (Anaerobe Systems, Morgan Hill, Calif.) plates. The tubes and plates were incubated in an anaerobic atmosphere at 37° C. for 48 h.

P. acnes [9] = settings: strains UPC686 and UP2022; with XMP.629
Clostridium difficile = assay: microbe, parasite or virus in culture; settings: Clostridioides difficile, read-out: Minimum Inhibitory Concentrations
Enterococcus = assay type: cell-based
Experimental: as §2

Propionibacterium acnes = assay: microbe, parasite or virus in culture; settings: Cutibacterium acnes, read-out: Minimum Inhibitory Concentrations
[10] = BAA38|MRSA, read-out: Minimum Inhibitory Concentrations, Staphylococcus aureus BAA-38 (MRSA)
[11] = read-out: Minimum Inhibitory Concentrations, Staphylococcus aureus 19636
[12] = read-out: Minimum Inhibitory Concentrations, Pseudomonas aeruginosa 27853
[13] = read-out: Minimum Inhibitory Concentrations, Pseudomonas aeruginosa XS-65 (MDR)

Structure (SMILES): Cc1onc(-c2ccccc2)c1C(=O)N[C@@H]1C(=O)N2[C@@H]1SC(C)(C)[C@@H]2C(=O)O [Oxacillin]
MBC (antibiotic alone) (Staphylococcus aureus [1]): 1 µg/mL (≈ 2.49 µM)
MIC [2]: > 64 µg/mL
MIC (Staphylococcus aureus [3]; [10]): 8 µg/mL (≈ 19.9 µM)
MIC (Staphylococcus aureus [3]; [11]): 1 µg/mL (≈ 2.49 µM)

Structure (SMILES): CCCCCCCCCCCCOS(=O)(=O)[O-].[Na+] [sodium lauryl sulfate]
cumulative irritation, conclusion (skin of healthy subjects): mild cumulative irritation
mean cumulative irritation score (skin of healthy subjects): 0.25

MIC (Serratia marcescens): 0.25 µg/mL (≈ 0.451 µM)
MIC (Bacteroides fragilis): 2.5 µg/mL (≈ 4.51 µM)
MIC (Escherichia coli; Escherichia coli 07:K1): ≤ 0.25 µg/mL
MIC (Escherichia coli; Escherichia coli 0111:B4): ≤ 0.063 µg/mL
MIC (Klebsiella pneumoniae; Klebsiella pneumoniae 19645): > 64 µg/mL
MIC (Klebsiella pneumoniae; Klebsiella pneumoniae 29011): 0.13 µg/mL (≈ 0.234 µM)
MIC (Proteus mirabilis): ≤ 0.063 µg/mL
MIC (Pseudomonas aeruginosa; [12]): 8 µg/mL (≈ 14.4 µM)
MIC (Pseudomonas aeruginosa; [13]): 16 µg/mL (≈ 28.9 µM)
Structure (SMILES): CO/N=C(\C(=O)N[C@@H]1C(=O)N2C(C(=O)O)=C(CSc3nc(=O)c(=O)[nH]n3C)CS[C@H]12)c1csc(N)n1 [Ceftriaxone]
MBC (antibiotic alone) (Staphylococcus aureus [1]): >4 µg/mL
MBC (antibiotic alone) (E. coli): ≦4 μg/mL

MIC (Streptococcus sobrinus): 2 µg/mL (≈ 6.04 µM)
MIC [2]: 64 µg/mL (≈ 193 µM)
MIC (Enterococcus hirae): ≤ 1 µg/mL
MIC (Serratia marcescens): 0.06 µg/mL (≈ 0.181 µM)
MIC (Burkholderia cepacia): 1 µg/mL (≈ 3.02 µM)
MIC (Prevotella intermedia): ≤ 1 µg/mL
MIC (Escherichia coli; Escherichia coli 07:K1): ≤ 0.25 µg/mL
MIC (Escherichia coli; Escherichia coli 0111:B4): ≤ 0.063 µg/mL
MIC (Klebsiella pneumoniae; Klebsiella pneumoniae 19645): 0.13 µg/mL (≈ 0.392 µM)
MIC (Klebsiella pneumoniae; Klebsiella pneumoniae 29011): ≤ 0.063 µg/mL
MIC (Porphyromonas gingivalis): ≤ 1 µg/mL
MIC (Proteus mirabilis): ≤ 0.063 µg/mL
MIC (Salmonella ryphimurium): ≤ 1 µg/mL
MIC [4]: ≤ 1 µg/mL
MIC (Streptococcus pneumoniae): ≤ 1 µg/mL
MIC (Streptococcus mutans; Streptococcus mutans 25175): 2 µg/mL (≈ 6.04 µM)
MIC (Macrococcus caseolyticus): ≤ 1 µg/mL
MIC (Pseudomonas aeruginosa; read-out: Minimum Inhibitory Concentrations, Pseudomonas aeruginosa 9027): 0.13 µg/mL (≈ 0.392 µM)
MIC (Pseudomonas aeruginosa; read-out: Minimum Inhibitory Concentrations, Pseudomonas aeruginosa 19660): 0.13 µg/mL (≈ 0.392 µM)
MIC (Pseudomonas aeruginosa; [12]): ≤ 1 µg/mL
MIC (Pseudomonas aeruginosa; [13]): ≤ 1 µg/mL
Structure (SMILES): O=C(O)c1cn(C2CC2)c2cc(N3CCNCC3)c(F)cc2c1=O [Ciprofloxacin]

Structure (SMILES): O=C(O)CCCCCCCC(=O)O [azelaic acid]
patients reporting pruritus (itching), burning, stinging, and tingling (patients): 1-5%

Structure (SMILES): CC[C@H]1OC(=O)[C@H](C)[C@@H](O[C@H]2C[C@@](C)(OC)[C@@H](O)[C@H](C)O2)[C@H](C)[C@@H](O[C@@H]2O[C@H](C)C[C@H](N(C)C)[C@H]2O)[C@](C)(O)C[C@@H](C)C(=O)[C@H](C)[C@@H](O)[C@]1(C)O [Erythromycin]
MIC90 (S. aureus): > 4 µg/mL
MIC [5]: 4 µg/mL (≈ 5.45 µM)
MIC (P. acnes [6]; ATCC6919, ATCC 6919 converted to an intermediate-erythromycin strain): 64 µg/mL (≈ 87.2 µM)
MIC (P. acnes [6]; clindamycin/erythromycin sensitive strain UP2022): < 1 µg/mL
MIC/MBC ([7]; listed as Erythromycin IR): 64 µg/mL (≈ 87.2 µM)
MIC/MBC ([7]; listed as Erythromycin R): >64 µg/mL
MIC90 (Corynebacterium): 0.5 µg/mL (≈ 0.681 µM)
MIC90 (P. acnes [8]): > 256 µg/mL
FIC (P. acnes [9]): 2

Structure (SMILES): CN[C@H](CC(C)C)C(=O)N[C@H]1C(=O)N[C@@H](CC(N)=O)C(=O)N[C@H]2C(=O)N[C@H]3C(=O)N[C@H](C(=O)N[C@H](C(=O)O)c4cc(O)cc(O)c4-c4cc3ccc4O)[C@H](O)c3ccc(c(Cl)c3)Oc3cc2cc(c3O[C@@H]2O[C@H](CO)[C@@H](O)[C@H](O)[C@H]2O[C@H]2C[C@](C)(N)[C@H](O)[C@H](C)O2)Oc2ccc(cc2Cl)[C@H]1O [Vancomycin]
MIC90 (S. aureus): 4 µg/mL (≈ 2.76 µM)
MIC (Clostridium difficile): 1 µg/mL (≈ 0.69 µM)
MIC (Streptococcus sobrinus): 1 µg/mL (≈ 0.69 µM)
MIC90 (Corynebacterium): 0.5 µg/mL (≈ 0.345 µM)
MIC90 (P. acnes [8]): 2 µg/mL (≈ 1.38 µM)
MIC90 of Standard Topical Agents (Enterococcus): 1.0/NE
MIC [2]: > 64 µg/mL
MIC (Propionibacterium acnes): 2 µg/mL (≈ 1.38 µM)
MIC (Streptococcus mutans; Streptococcus mutans): 2 µg/mL (≈ 1.38 µM)
MIC (Staphylococcus aureus [3]; [10]): 1 µg/mL (≈ 0.69 µM)
MIC (Staphylococcus aureus [3]; read-out: Minimum Inhibitory Concentrations, Staphylococcus aureus 6258): 2 µg/mL (≈ 1.38 µM)
MIC (Staphylococcus aureus [3]; read-out: Minimum Inhibitory Concentrations, Staphylococcus aureus 11371): 1 µg/mL (≈ 0.69 µM)
MIC (Staphylococcus aureus [3]; read-out: Minimum Inhibitory Concentrations, Staphylococcus aureus 12598): 1.25 µg/mL (≈ 0.863 µM)
MIC (Staphylococcus aureus [3]; [11]): ≤ 1 µg/mL

Reference: patent US20050148495A1, “Methods and materials including for treating acne” (priority 2003, published 2005)
